In one series the target is T1, PDE4B1 (Homo sapiens, UniProt Q07343).
T1 construct: purchased BPS 60041
Put plainly: Effect of compounds on PDE4B1 activity (IMAP fluorescence polarization kit). The format is biochemical. Particulars: class symbols. Here is the method:
The IMAP Reaction Buffer containing 0.1% BSA (5×) in the kit was diluted into a 1-fold reaction buffer containing 1 mM DTT. 0.12 nM PDE4B1 (BPS, Cat #60041) was added to the 1-fold reaction buffer to form a 2-fold enzyme solution. 10 μL of the 2-fold enzyme solution was added to wells of a 384-well reaction plate. For the negative control well, 10 μL of the 1-fold reaction buffer was used instead of the enzyme solution. Centrifugation at 1000 rpm for 1 minute and incubation at room temperature for 15 minutes were carried out. 0.2 uM FAM-labeled cAMP (FAM-cAMP, Molecular Device, Cat #R7506) was added to the 1-fold reaction buffer to form a 2-fold substrate solution. 10 μL of the 2-fold substrate solution was added to each well of the 384-well reaction plate. Centrifugation at 1000 rpm for 1 minute was carried out. A reaction was carried out at room temperature for 20 minutes. IMAP Progressive Binding Buffer A (5×), IMAP Progressive Binding Buffer B (5×), and IMAP Progressive Binding Reagent (provided by IMAP FP IPP Explorer Kit) were prepared into a reaction stop solution according to the instructions for use. 60 μL of an […] reaction stop solution was added to each well of the 384-well reaction plate to stop the reaction, and the reaction product was centrifuged at 1000 rpm for 1 minute. Incubation at room temperature in the dark for 60 minutes was carried out. The mP values (Ex480/Em535 (s), Em535 (p)) were read by a microplate reader (Envision).
FP was usually represented by mP value. mP value for FP measurement=1000*(S−G*P)/(S+G*P) • S: fluorescence intensity in parallel direction • P: fluorescence intensity in perpendicular direction • G: G factor=1
(§1) [formula] • mP(sample): mP of the test compound in a reaction well • mP(negative control): mP in the negative control well • mP(positive control): mP in the positive control well
According to the calculated inhibition rate at each concentration, the IC50 value of each compound was calculated by XLFit excel add-in version 5.4.0.8 software.
Y=Bottom+(Top−Bottom)/(1+(IC50/X)^HillSlope) Fitting formula: […]
In general terms: In fluorescence polarisation assays a small probe gives low polarisation when free and higher when bound to something large.

A further series concerns the target T2, PDE4D2 (Homo sapiens, UniProt Q08499).
T2 construct: purchased BPS Bioscience 60345
Put plainly: Effect of compounds on PDE4D2 activity (fluorescence polarization kit). Particulars: class symbols. The format is biochemical. Here is the method:
The effect of compounds on PDE4D2 activity was detected by a fluorescence polarization kit (BPS Bioscience, Catalog #60345). During the reaction, 12.5 μL of 0.272 ng/well of an enzyme (final concentration: 0.068 ng/well) and 12.5 μL of the compound diluted in a gradient manner (DMSO concentration: 4%) were first pre-incubated at room temperature for 15 minutes, the same volume of the enzyme at the same concentration and 12.5 μL of PDE buffer containing 4% DMSO were added to the positive control well, and 25 μL of PDE buffer containing 2% DMSO was added to the negative control well. After completion, 25 μL of […] FAM-Cyclic-3′,5′-AMP (final concentration: […]) was added to each well, fully mixed, and then incubated at room temperature with slow shaking for 30 minutes. The Binding Agent was diluted with the Binding Agent Diluent (cAMP) at a ratio of 1:100 for later use, 100 μl/well of the Binding Agent dilution was taken and added to all wells of the test plate and incubated at room temperature with slow shaking for 1 hour.
After the incubation was complete, BMG LRBTECH microplate reader was used for FP detection, with Excitation at 485 nm and Emission at 520 nm. FP was usually represented by mP value.
[formula] • I∥ (S520): fluorescence intensity in parallel direction • I⊥ (P520): fluorescence intensity in perpendicular direction • G: G factor=1
as §1
According to the calculated inhibition rate at each concentration, the IC50 value of each compound was calculated by GraphPad Prism 8 software.

A short description of series [1]: Pharmacokinetic test in mice. The format is in vivo, ICR mice. As to the method:
5.1 Experimental animals: Male ICR mice, 20-25 g, 6 mice/compound. Purchased from Chengdu Ddossy Experimental Animals Co., Ltd.
5.2 Experimental design: On the day of the experiment, 42 ICR mice were randomly grouped according to their body weights. The animals were fasted with water available for 12-14 h one day before administration and fed 4 h after administration.
Before and after administration, 0.06 mL of blood was taken from the orbit under isoflurane anesthesia and placed in an EDTAK2 centrifuge tube for centrifugation at 5000 rpm at 4-C for 10 min, followed by plasma collection. The blood collection time points for the intravenous group and intragastric group were both 0 m, 5 mi, 15 mi, 30 mi, 1 h, 2 h, 4 h, 6 h, 8 h, and 24 h. Before analysis and detection, all the samples were stored at −80° C., and the samples were subjected to quantitative analysis using LC-MS/MS.

In series [2] the target is T3, hERG potassium ion channel (Homo sapiens, UniProt Q12809).
T3 construct: expressed in transfected cells
T3 sequence (Q12809 whole entry): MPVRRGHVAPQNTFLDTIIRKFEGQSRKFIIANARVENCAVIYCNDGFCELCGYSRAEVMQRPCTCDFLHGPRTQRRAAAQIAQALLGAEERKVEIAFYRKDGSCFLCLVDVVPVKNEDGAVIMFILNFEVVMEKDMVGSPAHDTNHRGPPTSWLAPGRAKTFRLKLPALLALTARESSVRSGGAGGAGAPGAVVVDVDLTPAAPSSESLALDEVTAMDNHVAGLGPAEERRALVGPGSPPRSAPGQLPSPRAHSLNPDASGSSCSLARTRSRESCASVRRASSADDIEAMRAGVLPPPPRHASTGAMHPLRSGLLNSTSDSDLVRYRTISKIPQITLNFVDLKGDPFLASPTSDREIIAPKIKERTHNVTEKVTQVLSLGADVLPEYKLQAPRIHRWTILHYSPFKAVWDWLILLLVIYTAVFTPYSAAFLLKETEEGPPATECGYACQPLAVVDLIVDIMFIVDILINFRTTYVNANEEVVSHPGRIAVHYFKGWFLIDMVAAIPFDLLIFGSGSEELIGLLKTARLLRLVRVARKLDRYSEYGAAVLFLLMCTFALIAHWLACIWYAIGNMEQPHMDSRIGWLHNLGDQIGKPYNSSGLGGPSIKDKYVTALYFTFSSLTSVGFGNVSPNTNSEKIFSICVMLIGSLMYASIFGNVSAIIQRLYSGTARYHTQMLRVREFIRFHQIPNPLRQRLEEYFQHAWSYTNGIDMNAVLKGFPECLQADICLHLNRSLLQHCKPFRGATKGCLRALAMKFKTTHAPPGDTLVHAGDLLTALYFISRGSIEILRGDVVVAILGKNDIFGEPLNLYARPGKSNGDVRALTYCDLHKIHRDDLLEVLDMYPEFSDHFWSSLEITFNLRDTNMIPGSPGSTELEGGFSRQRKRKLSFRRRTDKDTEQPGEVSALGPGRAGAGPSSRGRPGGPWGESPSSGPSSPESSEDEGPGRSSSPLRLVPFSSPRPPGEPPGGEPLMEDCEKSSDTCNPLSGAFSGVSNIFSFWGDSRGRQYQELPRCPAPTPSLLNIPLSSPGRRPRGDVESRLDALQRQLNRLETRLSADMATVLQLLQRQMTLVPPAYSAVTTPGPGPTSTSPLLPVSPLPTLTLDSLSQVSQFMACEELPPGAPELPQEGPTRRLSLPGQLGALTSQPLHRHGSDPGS
As to the kind of experiment: Test for hERG potassium ion channel (manual patch-clamp, CHO cells). The format is cell-based. As to conditions: CHO cells stably expressing hERG, whole cell patch-clamp; read-out: IC50, inhibition of hERG potassium channel current. From the text:
Experimental Platform: Electrophysiological Manual Patch-Clamp System
Cell line: Chinese hamster ovary (CHO) cell line stably expressing hERG potassium ion channel
Experimental method: CHO (Chinese Hamster Ovary) cells stably expressing hERG potassium channel were subjected to a whole cell patch-clamp technique to record the hERG potassium channel current at room temperature. The glass microelectrode was made of a glass electrode blank (BF150-86-10, Sutter) by a puller. The tip resistance after filling the liquid in the electrode was about 2-5 MQ. The glass microelectrode can be connected to the patch-clamp amplifier by inserting the glass microelectrode into an amplifier probe. The clamping voltage and data recording were controlled and recorded by the pClamp 10 software through a computer. The sampling frequency was 10 kHz, and the filtering frequency was 2 kHz. After the whole cell records were obtained, the cells were clamped at −80 mV, and the step voltage that induced the hERG potassium current (IhERG) was depolarized from −80 mV to +20 mV for 2 s, then repolarized to −50 mV, and returned to −80 mV after 1 s. This voltage stimulation was given every 10 s, and the administration process was started after the hERG potassium current was confirmed to be stable (at least 1 minute). The compound was administered for at least 1 minute at each test concentration, and at least 2 cells (n: 2) were tested at each concentration.
Data processing: Data analysis processing was carried out by using pClamp 10, GraphPad Prism 5, and Excel software. The degree of inhibition on the hERG potassium current (peak value of hERG tail current induced at −50 mV) at different compound concentrations was calculated by the following formula:
[formula] • where Inhibition % represents the percentage inhibition of the compound on the hERG potassium current, and I and Io represent the amplitude of the hERG potassium current after and before administration, respectively.
Compound IC50 was calculated using GraphPad Prism 5 software by fitting according to the following equation: […]

The mark [3] stands for this setting: male, ICR, mouse, iv, plasma, i.v. (5 mg/kg).
Where [4] appears, read: male, ICR, mouse, po, plasma, i.g. (10 mg/kg).

T2 sequence (Q08499 303-809): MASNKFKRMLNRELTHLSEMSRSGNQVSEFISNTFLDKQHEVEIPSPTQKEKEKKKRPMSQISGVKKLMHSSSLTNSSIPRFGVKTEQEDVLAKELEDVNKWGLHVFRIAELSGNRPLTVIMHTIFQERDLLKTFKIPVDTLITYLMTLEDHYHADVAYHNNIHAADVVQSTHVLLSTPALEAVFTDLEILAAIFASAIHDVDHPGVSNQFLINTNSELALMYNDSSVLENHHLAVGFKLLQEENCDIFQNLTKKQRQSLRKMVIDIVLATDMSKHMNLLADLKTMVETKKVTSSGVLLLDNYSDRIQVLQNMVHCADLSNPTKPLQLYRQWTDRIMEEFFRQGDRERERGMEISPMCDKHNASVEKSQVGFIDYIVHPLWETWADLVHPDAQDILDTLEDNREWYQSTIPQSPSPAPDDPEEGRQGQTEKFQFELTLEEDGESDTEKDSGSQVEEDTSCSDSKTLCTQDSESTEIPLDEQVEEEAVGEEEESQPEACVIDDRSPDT
T1 sequence (Q07343 whole entry): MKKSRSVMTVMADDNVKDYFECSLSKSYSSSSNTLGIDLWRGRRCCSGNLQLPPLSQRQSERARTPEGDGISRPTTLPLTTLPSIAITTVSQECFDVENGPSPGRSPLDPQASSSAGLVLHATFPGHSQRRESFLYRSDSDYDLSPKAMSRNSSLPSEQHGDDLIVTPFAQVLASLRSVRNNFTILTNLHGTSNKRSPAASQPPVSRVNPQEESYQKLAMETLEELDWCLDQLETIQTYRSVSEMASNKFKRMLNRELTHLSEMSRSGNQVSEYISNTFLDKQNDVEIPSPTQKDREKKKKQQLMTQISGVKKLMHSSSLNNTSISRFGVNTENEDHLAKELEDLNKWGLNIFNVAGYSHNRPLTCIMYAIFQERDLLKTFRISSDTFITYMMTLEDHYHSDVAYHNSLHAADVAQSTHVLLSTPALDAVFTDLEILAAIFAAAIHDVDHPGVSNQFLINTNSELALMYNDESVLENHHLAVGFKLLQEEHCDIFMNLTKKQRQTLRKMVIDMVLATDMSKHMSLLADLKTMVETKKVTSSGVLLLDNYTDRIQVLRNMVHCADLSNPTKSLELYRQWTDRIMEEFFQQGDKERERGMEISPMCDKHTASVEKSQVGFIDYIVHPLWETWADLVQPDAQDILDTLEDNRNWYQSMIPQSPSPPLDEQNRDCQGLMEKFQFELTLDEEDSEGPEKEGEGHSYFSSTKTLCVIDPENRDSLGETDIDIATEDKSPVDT

Compound `[O-][S@+]1CCc2nc(N3CC=C(c4ncc(Cl)cn4)CC3)nc(NC3(CO)CCC3)c21` [Compound 28] registered an IC50 against PDE4B1 of under 10 nM. Also, the IC50 on PDE4D2 is under 10 nM. The F in series [1] (i.g. (10 mg/kg)) was found to be 71.4 ± 11%. In series [1] (setting [3]), this compound had an AUC(0-t) of 9210 ± 2070 ng·h/mL, a clearance of 4.67 ± 1.2 mL/min/kg and a half-life of 3.59 ± 0.19 h. Moreover, the Vd in series [1] (male, ICR, mouse, iv, plasma, i.v. (5 mg/kg), read-out: Vdss) came to 1.31 ± 0.28 L/kg. In series [1] (setting [4]), this compound showed an AUC(0-t) of 26300 ± 4150 ng·h/mL and a half-life of 7.04 ± 1.8 h.
With `[O-][S@+]1CCc2nc(N3CCC=C(c4ncc(Cl)cn4)CC3)nc(NC3(CO)CCC3)c21` [Compound 34], the IC50 was under 10 nM at PDE4B1, under 10 nM on PDE4D2 and 13600 nM in series [2].

As a reminder, the IC50 is the concentration that inhibits the measured activity by half. For orientation: AUC(0-t) means the area under the concentration-time curve up to a stated or last time point. As a reminder, the clearance is the rate of elimination divided by the concentration. For orientation: half-life means how long it takes for the measured level to halve. The low end stands for fast loss, the high end for slow loss.

The record behind these values is patent US20250326765A1, “PDE4B INHIBITOR AND USE THEREOF” (XIZANG HAISCO PHARMACEUTICAL CO., LTD., priority 2022, published 2025).
